Assay results published in publication PMC7707621, “Oxidized Juncuenin B Analogues with Increased Antiproliferative Activity on Human Adherent Cell Lines: Semisynthesis and Biological Evaluation” (Journal of Natural Products, 2020).
“Also recorded” adds a separate entry of the source.

How the values were obtained:
MCF-7 cells = assay: MTT antiproliferative assay on MCF-7; assay type: cell-based, human; conditions: for inhibition at 10 µM / inhibition at 30 µM / IC50: Homo sapiens; for inhibition at 10 µM: MCF7, 10 μM; for inhibition at 10 µM / inhibition at 30 µM: read-out: Growth inhibition (% ± SEM), MCF-7; for inhibition at 30 µM: MCF7, 30 μM; for IC50: MCF7, MTT, 0.1–30 μM, 72 h, mean ± SEM, read-out: calculated IC50 values, MCF-7
Protocol: (§1) The antiproliferative assays of the products were carried out by a standard MTT method on human breast (MCF-7, T47D), cervical (HeLa, SiHa, C33A), and ovarian (A2780) cancer cells, and NIH/3T3 mouse embryonic fibroblast cell lines. In the first step, the diastereomeric and racemic mixtures 1–11 and the starting compound, juncuenin B, were tested to obtain information about their antiproliferative activity.
(§2) The antiproliferative activity and tumor selectivity of the compounds were measured by standard MTT assays. Tumor cell lines MCF-7, T47D, HeLa, A2780, and noncancerous NIH/3T3 were provided by European Collection of Authenticated Cell Cultures (ECACC, Salisbury, UK); cell lines SiHa and C33A by LGC Standards GmbH (Wesel, Germany). All chemicals and materials used for the antiproliferative assays were purchased from Sigma Aldrich Ltd. (Budapest, Hungary).
(§3) Growth-inhibition properties of racemates and pure enantiomer compounds were determined by standard MTT assays on six human malignant gynecological cell lines (MCF-7, T47D, HeLa, SiHa, C33A, A2780). To investigate tumor selectivity, the MTT assay was repeated on mouse embryonic fibroblast cells (NIH/3T3) under the same conditions. All cell lines were maintained in minimal essential medium (MEM) supplemented with 10% fetal bovine serum, 1% nonessential amino acids, and 1% penicillin–streptomycin–amphotericin B mixture, and were stored in humidified air containing 5% CO2 at 37 °C. All cell types were seeded into 96–well plates at a density of 5000 with the exception of C33a, which was seeded at a density of 10 000 and treated by increasing concentrations (0.1–30 μM) of the compounds for 72 h under cell culturing conditions. After the incubation, 5 mg/mL MTT [3-(4,5-dimethylthiazol-2-yl)-2,5-diphenyltetrazolium bromide] solution was added to samples for 4 h and precipitated blue formazan crystals were dissolved in DMSO. Absorbance values of the samples were measured at 545 nm using a microplate reader (Stat Fax-2100, Awareness Technologies Inc., Palm City, FL, USA) and untreated cells were used as control. Normalized sigmoidal dose–response curves were fitted to the determined data and the IC50 values were calculated by GraphPad Prism 5.01 (GraphPad Software, San Diego, CA, USA). Cisplatin (Ebewe Pharma GmbH, Unterach, Austria) was used as a reference agent in the same concentration range.

T47D cells = assay: MTT antiproliferative assay on T47D; assay type: cell-based, human; conditions: for inhibition at 10 µM / inhibition at 30 µM / IC50: Homo sapiens, T47D; for inhibition at 10 µM / inhibition at 30 µM: read-out: Growth inhibition (% ± SEM), T47d; for IC50: MTT, 0.1–30 μM, 72 h, mean ± SEM, read-out: calculated IC50 values, T47D
Protocol: as §1, §2, §3

HeLa cells = assay: MTT antiproliferative assay on HeLa; assay type: cell-based, human; conditions: for inhibition at 10 µM / inhibition at 30 µM / IC50: Homo sapiens, HeLa; for inhibition at 10 µM / inhibition at 30 µM: read-out: Growth inhibition (% ± SEM), HeLa; for IC50: MTT, 0.1–30 μM, 72 h, mean ± SEM, read-out: calculated IC50 values, HeLa
Protocol: as §1, §2, §3

SiHa cells = assay: MTT antiproliferative assay on SiHa; assay type: cell-based, human; conditions: for inhibition at 10 µM / inhibition at 30 µM / IC50: Homo sapiens, SiHa; for inhibition at 10 µM / inhibition at 30 µM: read-out: Growth inhibition (% ± SEM), SiHa; for IC50: MTT, 0.1–30 μM, 72 h, mean ± SEM, read-out: calculated IC50 values, SiHa
Protocol: as §1, §2, §3

C33A cells = assay: MTT antiproliferative assay on C33A; assay type: cell-based, human; conditions: for inhibition at 10 µM / inhibition at 30 µM / IC50: Homo sapiens, C-33-A; for inhibition at 10 µM / inhibition at 30 µM: read-out: Growth inhibition (% ± SEM), C33a; for IC50: MTT, 0.1–30 μM, 72 h, mean ± SEM, read-out: calculated IC50 values, C33A
Protocol: as §1, §2, §3

A2780 cells = assay: MTT antiproliferative assay on A2780; assay type: cell-based, human; conditions: for inhibition at 10 µM / inhibition at 30 µM / IC50: Homo sapiens; for inhibition at 10 µM: A2780, 10 μM; for inhibition at 10 µM / inhibition at 30 µM: read-out: Growth inhibition (% ± SEM), A2780; for inhibition at 30 µM: A2780, 30 μM; for IC50: A2780, MTT, 0.1–30 μM, 72 h, mean ± SEM, read-out: calculated IC50 values, A2780
Protocol: as §1, §2, §3

[1] = system: MCF-7, T47D, HeLa, SiHa, C33A, A2780 cells; assay: MTT antiproliferative assay, panel of human gynecological cancer cell lines (result in words); assay type: cell-based
Protocol: as §1, §2, §3

[2] = system: NIH/3T3 mouse embryonic fibroblast cells; assay: MTT assay for tumor selectivity on NIH/3T3; assay type: cell-based; conditions: Mus musculus, NIH3T3; for inhibition at 10 µM / inhibition at 30 µM: read-out: Growth inhibition (% ± SEM), NIH; for IC50: MTT, 0.1–30 μM, 72 h, mean ± SEM, read-out: calculated IC50 values, NIH/3T3
Protocol: as §1, §2, §3

SMILES | inhibition at 10 µM (MCF-7 cells) | inhibition at 30 µM (MCF-7 cells) | inhibition at 10 µM (T47D cells; 10 μM) | inhibition at 30 µM (T47D cells; 30 μM) | inhibition at 10 µM (HeLa cells; 10 μM) | inhibition at 30 µM (HeLa cells; 30 μM) | inhibition at 10 µM (SiHa cells; 10 μM) | inhibition at 30 µM (SiHa cells; 30 μM) | inhibition at 10 µM (C33A cells; 10 μM) | inhibition at 30 µM (C33A cells; 30 μM) | inhibition at 10 µM (A2780 cells) | inhibition at 30 µM (A2780 cells) | antiproliferative activity (in words) [1] | IC50 (MCF-7 cells) | IC50 (T47D cells) | IC50 (HeLa cells) | IC50 (SiHa cells) | IC50 (C33A cells) | IC50 (A2780 cells) | IC50 [2] | also measured
C=CC1=C(C)C(=O)C=C2C3(OC)C=CC(=O)C(C)=C3CCC21OC (centres unmarked) [Compound 2a] | 40.3 ± 0.95% | 30.5 ± 1.82% | < 10% | 19.8 ± 0.61% | 32.3 ± 4.15% | 30 ± 0.74% | 15.4 ± 1.68% | 16.9 ± 2.31% | < 10% | 31.9 ± 3.75% | < 10% | 54.6 ± 3.67% | did not exert antiproliferative activity; also recorded: No significant activities | – | – | – | – | – | – | – | –
C=CC1=C(C)C(=O)C=C2C3(OC)C=CC(=O)C(C)=C3CCC21OC (centres unmarked) [Compound 2b] | – | – | – | – | – | – | – | – | – | – | – | – | did not exert antiproliferative activity; also recorded: No significant activities | – | – | – | – | – | – | – | Growth inhibition (% ± SEM), MCF-7 (MCF-7 cells; 10 μM): 27.86±1.80%; Growth inhibition (% ± SEM), MCF-7 (MCF-7 cells; 30 μM): 46.79±1.23%; Growth inhibition (% ± SEM), T47d (T47D cells; 10 μM): 16.79±1.72%; Growth inhibition (% ± SEM), T47d (T47D cells; 30 μM): 25.66±2.53%; Growth inhibition (% ± SEM), HeLa (HeLa cells; 10 μM): 16.35±1.56%; Growth inhibition (% ± SEM), HeLa (HeLa cells; 30 μM): 38.33±1.22%; Growth inhibition (% ± SEM), SiHa (SiHa cells; 10 μM): 14.10±2.36%; Growth inhibition (% ± SEM), SiHa (SiHa cells; 30 μM): 15.32±0.68%; Growth inhibition (% ± SEM), C33a (C33A cells; 10 μM): < 10%; Growth inhibition (% ± SEM), C33a (C33A cells; 30 μM): 23.25±2.82%; Growth inhibition (% ± SEM), A2780 (A2780 cells; 10 μM): < 10%; Growth inhibition (% ± SEM), A2780 (A2780 cells; 30 μM): 38.92±3.78%
C=Cc1c(C)c(O)c(OC)c2c3c(ccc12)C(C)(OC)C(=O)C=C3 (centres unmarked) [Compound 3] | 22.7 ± 0.57% | 21.4 ± 0.34% | < 10% | 15.5 ± 2.06% | < 10% | 15 ± 1.11% | < 10% | < 10% | < 10% | 14.2 ± 1.51% | < 10% | < 10% | did not exert antiproliferative activity; also recorded: No significant activities | – | – | – | – | – | – | – | –
C=CC1=C(C)C(=O)C=C2c3ccc(O)c(C)c3CC[C@]21OC [Compound 4b] | 24.4 ± 1.43% | 42 ± 1.94% | 16.5 ± 1.68% | 28.1 ± 1.79% | 19 ± 2.11% | 37.2 ± 0.72% | < 10% | < 10% | < 10% | 35.4 ± 0.8% | < 10% | 13.7 ± 2.81% | no relevant influence on the cell proliferation | > 30 µM | > 30 µM | > 30 µM | > 30 µM | > 30 µM | > 30 µM | > 30 µM | inhibition at 10 µM [2]: < 10%; inhibition at 30 µM [2]: < 10%
C=CC1=C(C)C(=O)C=C2C3(OCC)C=CC(=O)C(C)=C3CCC21OCC (centres unmarked) [Compound 5] | < 10% | < 10% | < 10% | 14.1 ± 2.78% | < 10% | 14.4 ± 1.51% | < 10% | < 10% | < 10% | 10.3 ± 1.51% | < 10% | < 10% | did not exert antiproliferative activity; also recorded: No significant activities | – | – | – | – | – | – | – | –
C=CC1=C(C)C(=O)C=C2c3ccc(O)c(C)c3CC[C@]21OCC [Compound 7b, 8a-ethoxy-1,7-dimethyl-6-oxo-8-vinyl-9,10-dihydrophenanthrene-2-ols] | < 10% | < 10% | < 10% | 13.5 ± 2.41% | 15 ± 2.72% | 31.7 ± 2.37% | < 10% | < 10% | < 10% | 26 ± 3% | < 10% | 20.6 ± 2.43% | no activity; also recorded: no relevant influence on the cell proliferation | > 30 µM | > 30 µM | > 30 µM | > 30 µM | > 30 µM | > 30 µM | > 30 µM | inhibition at 10 µM [2]: < 10%; inhibition at 30 µM [2]: 10.5 ± 1%
C=Cc1c(C)c(O)cc2c3c(ccc12)C(C)(OCC)C(=O)C=C3 (centres unmarked) [Compound 8] | 13 ± 0.63% | 23.9 ± 2.11% | < 10% | 14.1 ± 2.02% | < 10% | 22.2 ± 1.15% | < 10% | 16.7 ± 2.83% | < 10% | 21.3 ± 1.52% | < 10% | < 10% | did not exert antiproliferative activity; also recorded: No significant activities | – | – | – | – | – | – | – | –
C=CC1=C2CCc3c(ccc(O)c3C)C2=CC(=O)C1(C)OCC (centres unmarked) [Compound 9] | 10.7 ± 2.42% | 17 ± 2.56% | < 10% | 13.2 ± 2.03% | 15.1 ± 1.9% | 18.4 ± 3.15% | < 10% | < 10% | < 10% | < 10% | < 10% | < 10% | did not exert antiproliferative activity; also recorded: No significant activities | – | – | – | – | – | – | – | –
C=CC1=C(C)C(=O)C(OCCCC)(OCCCC)c2c1ccc1c2C=CC(=O)C1(C)OCCCC (centres unmarked) [Compound 10] | < 10% | 42.5 ± 2.23% | < 10% | 33 ± 1.62% | < 10% | 14.1 ± 1.97% | < 10% | 10.4 ± 2.8% | < 10% | 16 ± 1.43% | < 10% | 10.1 ± 1.23% | did not exert antiproliferative activity | – | – | – | – | – | – | – | –
C=CC1=C(C)C(=O)C=C2c3ccc(O)c(C)c3CCC21OCCCC (centres unmarked) [Compound 11] | 27.7 ± 1.3% | 82.46 ± 0.33% | 11.6 ± 1.4% | 52.9 ± 0.59% | < 10% | 42.6 ± 1.18% | < 10% | < 10% | 20.1 ± 2.24% | 65.5 ± 1.26% | 28.3 ± 2.31% | 77.82 ± 0.69% | No significant activities | 18.2 ± 0.2 µM | 30 ± 0.5 µM | > 30 µM | > 30 µM | 19.9 ± 1.3 µM | 16.5 ± 2 µM | > 30 µM | –
